PubChem BioAssay AID608 (Sanford-Burnham Center for Chemical Genomics, 2007)
The source made the active and inactive calls. How the calls were made is not given here.

Biological target: Peptidyl-prolyl cis-trans isomerase FKBP1A (Homo sapiens) (UniProt P62942)
Test: small-molecule binding to FKBP12 – biophysical, NMR detection (AID 608)
Details: purified FKBP12

Chain of Peptidyl-prolyl cis-trans isomerase FKBP1A (Homo sapiens) (P62942 whole entry, looked up): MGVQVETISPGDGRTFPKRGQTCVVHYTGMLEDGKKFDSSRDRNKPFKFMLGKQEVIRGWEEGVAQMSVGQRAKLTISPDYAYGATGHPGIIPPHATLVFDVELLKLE

SMILES | Kd
Cc1ccc(C(=O)NC2=NCCS2)o1 | > 4 mM (inactive)
Cn1cnc2ccc([N+](=O)[O-])cc2c1=O | > 4 mM (inactive)
CC(=O)Nc1ccc(Cl)c(C(N)=O)c1 | > 4 mM (inactive)
COc1ccc(-c2cc3nc4n(c(=O)c3s2)CCC4)cc1 | > 4 mM (inactive)
O=C(O)c1ccc2ccccc2n1 | > 4 mM (inactive)
CCn1c(-c2c[nH]c3ccccc23)n[nH]c1=S | > 4 mM (inactive)
NCCN=C1NS(=O)(=O)c2ccccc21 | > 4 mM (inactive)
NCc1ccc(S(N)(=O)=O)cc1 | > 4 mM (inactive)
c1ccc(-c2n[nH]c(-c3ccccn3)n2)nc1 | > 4 mM (inactive)
CN(C)c1ccc(NC(=O)CC(C(=O)O)N(C)C)cc1 (configuration not stated) | > 4 mM (inactive)
Nc1ccc(Cl)nn1 | > 4 mM (inactive)
NCc1ccccc1N1CCOCC1 | > 4 mM (inactive)
Cc1csc(SCC(=O)N2CCCC2)n1 | > 4 mM (inactive)
CSc1nnc(-c2ccccc2NC(C)=O)o1 | > 4 mM (inactive)
c1csc(-c2nn[nH]n2)c1 | > 4 mM (inactive)
CCC(=O)OC1[C@@H]2CC3=C4CC(=O)O[C@@H](c5ccoc5)[C@]4(C)CCC3C(C)(C2=O)[C@@H](CC(=O)OC)C1(C)C (some centres not stated) | > 4 mM (inactive)
N#Cc1cc(-c2ccccc2)oc1N | > 4 mM (inactive)
O=C(O)CSc1nc2ccccc2c(=O)[nH]1 | > 4 mM (inactive)
CCn1cnc2sc(C(=O)O)c(C)c2c1=O | > 4 mM (inactive)

SMILES | Kd
O=C(Nc1ccc(Cl)cc1)N1CCCC1 | inactive
CCCC(=O)N1CCSCC1 | > 4 mM (inactive)
Cc1c(-c2ccccc2)[n+](=O)c(-c2ccco2)c(C)n1[O-] | > 4 mM (inactive)
COc1cccc2onc(N)c12 | > 4 mM (inactive)
O=C(Cn1c(-c2cscn2)nc2ccccc21)Nc1ccc(Cl)cc1 | > 4 mM (inactive)
CCOc1ccc(NS(=O)(=O)N2CCOCC2)cc1 | > 4 mM (inactive)
Cc1cc2ncc(C(=O)Nc3ccccc3)c(C)n2n1 | inactive
COc1c2ccoc2cc2oc(=O)ccc12 | > 4 mM (inactive)
CC1=NN(c2ccc(N)cc2)C(=O)C1 | > 4 mM (inactive)
NC1C2CC3CC1CC(O)(C3)C2 (configuration not stated) | > 4 mM (inactive)
O=C(COc1ccc(S(=O)(=O)NC2CCCC2)cc1)N1CCOCC1 | inactive
OC[C@H]1O[C@@](CO)(O[C@@H]2O[C@H](CO)[C@@H](O)[C@H](O)[C@H]2O)[C@@H](O[C@@H]2O[C@H](CO)[C@@H](O)[C@H](O)[C@H]2O)[C@@H]1O | > 4 mM (inactive)
C(=N\c1ncn[nH]1)/c1cccs1 | > 4 mM (inactive)
O=C(O)c1ccc(N2CCOCC2)nc1 | > 4 mM (inactive)
NC(=O)C1CC2C=CC1C2 (configuration not stated) | > 4 mM (inactive)
NC(=O)c1c[nH]c2ccccc12 | > 4 mM (inactive)
O=c1ccc2nc3ccccc3c(=O)n2[nH]1 | > 4 mM (inactive)
Nc1cccc(C(=O)c2ccccc2)c1 | > 4 mM (inactive)
CS(=O)(=O)c1nncn1-c1ccccc1 | > 4 mM (inactive)

SMILES | Kd
OCc1csc(-c2ccccc2)n1 | > 4 mM (inactive)
Cc1nnc2ccc(N3CCCC3)nn12 | > 4 mM (inactive)
CC(=O)O[C@H]1CC[C@@]2(C)C(=CCC3C2CC[C@@]2(C)C3CC[C@@H]2C(C)CCCC(C)C)C1 (some centres not stated) | > 4 mM (inactive)
C[C@@H]1O[C@@H](O[C@H]2[C@@H](Oc3cc(O)c4c(c3)O[C@H](c3ccc(O)cc3)CC4=O)O[C@H](CO)[C@@H](O)[C@@H]2O)[C@H](O)[C@H](O)[C@H]1O | > 4 mM (inactive)
O=C1NCCCC1C(=O)N/N=C/c1ccccc1 (configuration not stated) | > 4 mM (inactive)
Cc1nc(CC(=O)O)c(-c2ccccc2)s1 | > 4 mM (inactive)
NCCc1nc2ccccc2[nH]1 | > 4 mM (inactive)
COc1cc(/C=C2\SC(=S)NC2=O)ccc1O | > 4 mM (inactive)
Cc1ccc(-c2nn(C)c(=O)c3ccccc23)cc1CO | > 4 mM (inactive)
NC(CCC(=O)Nc1ccc([N+](=O)[O-])cc1)C(=O)O (configuration not stated) | > 4 mM (inactive)
O=C(Nc1nc2ccccc2s1)c1ccc(=O)[nH]n1 | > 4 mM (inactive)
Cc1cc(C(=O)NC2=NCCS2)cs1 | > 4 mM (inactive)
Cc1ccc(S(=O)(=O)/N=C2\NC(=O)CS2)cc1 | > 4 mM (inactive)
O=C(O)c1cc(O)c2c(c1)[C@@H]([C@H]1c3cc(C(=O)O)cc(O)c3C(=O)c3c(O[C@H]4O[C@H](CO)[C@@H](O)[C@H](O)[C@H]4O)cccc31)c1cccc(O[C@H]3O[C@H](CO)[C@@H](O)[C@H](O)[C@H]3O)c1C2=O | > 4 mM (inactive)
CCOCC(=O)N1CCc2ccccc21 | > 4 mM (inactive)
O=c1c[n+]([O-])c2ccccc2n1OCc1ccccc1 | > 4 mM (inactive)
Nc1ccc(C2SCCS2)cc1 | > 4 mM (inactive)
O=c1nc(C(F)(F)F)nc2ccccn12 | > 4 mM (inactive)
Cc1ccc2c(c1)CC[C@H]1CC(=O)CC[C@]21C | > 4 mM (inactive)
